± gives the expanded uncertainty stated by the source.
Experiments:
[1] = molar enthalpy of vaporization or sublimation; conditions: 298.15 K; Crystal; Static calorimetry
[2] = Crystal, Calculated from knudsen effusion weight loss

| SMILES | molar enthalpy [1] | vapor or sublimation pressure ([2]; 394.16 K) | vapor or sublimation pressure ([2]; 396.13 K) | vapor or sublimation pressure ([2]; 398.11 K) | vapor or sublimation pressure ([2]; 400.15 K) | vapor or sublimation pressure ([2]; 402.1 K) | vapor or sublimation pressure ([2]; 404.1 K) | vapor or sublimation pressure ([2]; 406.15 K) | vapor or sublimation pressure ([2]; 408.13 K) | vapor or sublimation pressure ([2]; 410.11 K) | vapor or sublimation pressure ([2]; 412.16 K) | vapor or sublimation pressure ([2]; 414.11 K) | vapor or sublimation pressure ([2]; 416.12 K) |
| --- | --- | --- | --- | --- | --- | --- | --- | --- | --- | --- | --- | --- | --- |
| O=c1c2ccccc2[nH]c2ccccc12 [9(10H)-acridinone] | 133 ± 4.2 kJ/mol | – | – | – | – | – | – | – | – | – | – | – | – |
| Cn1c2ccccc2c(=O)c2ccccc21 [N-methylacridone] | 124 ± 2.9 kJ/mol | 0.0001465 ± 6e-05 kPa | 0.0001788 ± 6e-05 kPa | 0.0002123 ± 6.1e-05 kPa | 0.0002508 ± 6.1e-05 kPa | 0.0003035 ± 6.1e-05 kPa | 0.0003591 ± 6.1e-05 kPa | 0.0004322 ± 6.2e-05 kPa | 0.000516 ± 6.3e-05 kPa | 0.0005963 ± 6.4e-05 kPa | 0.0007321 ± 6.5e-05 kPa | 0.0008616 ± 6.7e-05 kPa | 0.00101 ± 9.3e-05 kPa |
